Key:
[1] = tested on: IL-1β stimulated IL-8 secretion in human umbilical vein endothelial cells (HUVECs); experiment: IL-1β stimulated IL-8 secretion assay in HUVEC cells (ELISA); type: cell-based; details: 0.5 ng/ml IL-1β; for inhibition at 1 µM: 1 μM compound, read-out: % Inhib at 1 μM; for inhibition at 1 µM / inhibition at 10 µM: IL-8 secretion; for inhibition at 10 µM: 10 μM compound, read-out: % Inhib at 10 μM; for IC50: 24 h, IL-8 ELISA
Procedure: Anti-inflammatory screening was established in human umbilical vein endothelial cells (HUVECs) to screen the test compounds for their ability to inhibit IL-1β stimulated IL-8 secretion from these cells. The level of secreted IL-8 in the HUVEC media was detected using a Quantikine™ Sandwich Enzyme-Linked Immunosorbent Assay (ELISA) from R&D Systems.
Cells and media were obtained from Cascade Biologics™ via Invitrogen. HUVECs were seeded in sterile 96-well tissue culture treated plates (0.1 ml per well, containing 2,400 cells; 8000 cells/cm^2). The seeded plates were incubated in a humidified incubator at 37 C/5% CO2. After 24 h, the media was replaced with fresh media (80 μl). The test compounds were serially diluted from 10 mM DMSO stocks with media to obtain dilutions 10× the final concentration. The compounds (10 μl) were added to the plates 30 min prior to the addition of 10 μl of 5 ng/ml stimulant IL-1β (final concentration 0.5 ng/ml). After incubating for 24 h, the plates were centrifuged at 200×g for 5 min (room temperature) and the media from each well transferred to a 96-well storage plate. Basal samples were assayed neat, but media from IL-1β stimulated cells was diluted in the calibrator diluent accompanying the IL-8 ELISA kit. The ELISA was performed according to the manufacturer's instructions.
A dose of 0.5 ng/ml IL-1β was chosen as a submaximal dose to observe the inhibition of IL-8 secretion with the test compounds.
Test compounds were initially screened at 10^−5M and 10^−6M for their ability to inhibit IL-1β stimulated IL-8 secretion (Table 1).

[2] = tested on: IL-1β stimulated GROα secretion in HUVECs; experiment: IL-1β stimulated GROα secretion in HUVECs (ELISA); type: cell-based, human; details: increasing concentration of compound
Procedure: (§1) The HUVEC IL1β secretion assay was performed using a 24-well plate format similar to that described for IL-8 secretion above (0.5 ml per well containing 16,000 cells; 8000 cells/cm^2). Media was collected from untreated cells (basal) and cells treated with either 0.5 ng/ml IL-1β only, 10^−5M compound (2) only or IL-1β stimulated plus compound (2). Media from 2 wells were pooled for each condition.
(§2) Using the results of the protein array, the effect of compound (2) on the secretion of five other cytokines stimulated by IL-1β was also measured in HUVECs. These included: GROα, MCP-1, GM-CSF, sICAM-1 and IL-6. The HUVECs were seeded in sterile 24-well tissue culture treated plates (as described above). The cells were treated with increasing doses of compound (2) prior to stimulating with IL-1β as described above. All cytokines were measured using the appropriate Quantikine® Sandwich ELISA from R&D Systems according to the manufacturer's instructions.

[3] = tested on: IL-1β stimulated IL-8 secretion in human umbilical vein endothelial cells (HUVECs); experiment: IL-1β stimulated IL-8 secretion assay in HUVEC cells (ELISA); type: cell-based; details: 24-well format, increasing doses
[4] = tested on: IL-1β stimulated GM-CSF secretion in HUVECs; experiment: IL-1β stimulated GM-CSF secretion in HUVECs (ELISA); type: cell-based, human; details: increasing doses of compound
Procedure: as §1, §2

[5] = tested on: IL-1β stimulated IL-6 secretion in HUVECs; experiment: IL-1β stimulated IL-6 secretion in HUVECs (ELISA); type: cell-based, human; details: increasing doses of compound
Procedure: as §1, §2

[6] = Solubility of the topical formulation in vehicle acetone:ethanol/1:1; type: physicochemical; details: 150, 50 and 15 mg/ml in acetone:ethanol/1:1
[7] = tested on: BALB/c mice, oxazolone-induced ear edema; experiment: Mouse allergic contact dermatitis model induced by oxazolone, topical application, ear swelling; type: in vivo; details: for effect on inflammation in mouse allergic contact dermatitis model: topical application, 0.3-3 mg/ear x2, result in words
Procedure: BALB/c derived male mice, weighing 23±2 g were housed in individually ventilated cages racks (IVC Racks, 36 Mini Isolator systems) throughout the experiment. Five mice per group were kept in a cage (in cm, 26.7 length×20.7 width×14.0 height) and maintained under controlled temperature (21-23° C.) and humidity (50%-70%) with 12-hour light/dark cycles. The animals were given free access to sterilized lab chow and reverse osmosis (RO) water ad libitum. All aspects of this work, i.e. housing, experimentation and disposal of animals, are performed in general accordance with the Guide for the Care and Use of Laboratory Animals (National Academy Press, Washington, D.C., 1996).
Compound (2) was prepared as 150, 50 and 15 mg/ml in vehicle, acetone:ethanol/1:1. The preshaven abdomens of five groups of 5 BALB/c test mice were sensitized by application of 100 μL of 1.5% oxazolone solution dissolved in acetone. Seven days after the initial sensitization, test substance (0.3, 1 and 3 mg in 20 μl/ear) and vehicle (acetone:ethanol/1:1, 20 μL/ear) were each administered topically to the anterior and posterior surfaces of the right ear 30 minutes before and 15 minutes after challenge by the second application of oxazolone (1% in acetone, 20 μL/ear). As a positive control, dexamethasone (0.1 mg/ear) was administered topically using the same treatment regime as the test compound. Twenty-four hours after the second application of oxazolone, the ear thickness of each mouse was measured with a Dyer model micrometer gauge. Ear edema was calculated by subtracting the thickness of the left ear (normal control) from the right ear (treated ear). Percent inhibition was calculated according to the formula: [(Ic−It)/Ic]×100%, where Ic and It refer to increase of ear thickness (mm) in control and treated mice, respectively. A 30 percent or more (30%) inhibition in ear swelling relative to the vehicle control is considered significant and indicates possible anti-inflammatory activity.

[8] = tested on: IL-1β stimulated MCP-1 secretion in HUVECs; experiment: IL-1β stimulated MCP-1 secretion in HUVECs (ELISA); type: cell-based, human; details: increasing concentration of compound
Procedure: as §1, §2

| SMILES | inhibition at 1 µM [1] [%] | inhibition at 10 µM [1] [%] | IC50 [1] [nM] | other results |
| --- | --- | --- | --- | --- |
| Cc1ccncc1-c1cc(C#N)c2n1CCCC2 [Compound 3, 3-(4-Methyl-pyridin-3-yl)-5,6,7,8-tetrahydro-indolizine-1-carbonitrile] | 34.4 | 35 | – | – |
| NC(=O)c1c(Cl)c(-c2cccnc2)n2c1C(O)CCC2 (stereo not shown) [Compound 5, 2-Chloro-8-hydroxy-3-pyridin-3-yl-5,6,7,8-tetrahydro-indolizine-1-carboxylic acid amide] | 29 | 52.4 | 760 | – |
| Cc1ccncc1-c1c(Cl)c(C(N)=O)c2n1CCCC2 [Compound 9, 2-Chloro-3-(4-methyl-pyridin-3-yl)-5,6,7,8-tetrahydro-indolizine-1-carboxylic acid amide] | 42.2 | 49.6 | 510 | – |
| NC(=O)c1c(Cl)c(-c2cccnc2)n2c1C(=O)CCC2 [Compound 11, 2-Chloro-8-oxo-3-pyridin-3-yl-5,6,7,8-tetrahydro-indolizine-1-carboxylic acid amide] | 32.9 | 31.7 | – | – |
| N#Cc1c(Cl)c(-c2cccnc2)n2c1C(O)CCC2 (stereo not shown) [Compound 6, 2-Chloro-8-hydroxy-3-pyridin-3-yl-5,6,7,8-tetrahydro-indolizine-1-carbonitrile] | 52.2 | 21.8 | – | – |
| Cc1ccncc1-c1c(Cl)c(C#N)c2n1CCCC2 [Compound 8, 2-Chloro-3-(4-Methyl-pyridin-3-yl)-5,6,7,8-tetrahydro-indolizine-1-carbonitrile] | 5.5 | 39.6 | – | – |
| NC(=O)c1c(Cl)c(-c2cccnc2)n2c1CCCC2 [Compound 2, 2-Chloro-3-pyridin-3-yl-5,6,7,8-tetrahydro-indolizine-1-carboxamide] | 49.4 | 59.5 | 350 | reduction of IL-1β stimulated GROα levels [2]: ~25%; effect on IL-1β stimulated IL-8 secretion [3]: inhibited IL-8 and GM-CSF to a similar extent; effect on IL-1β stimulated GM-CSF levels [4]: dose dependently decreased; effect on IL-1β stimulated IL-6 levels [5]: increased IL-6 levels further; solubility of formulation [6]: not completely soluble; inhibition of ear swelling relative to vehicle control ([7]; 0.3 mg/ear x2 topical, 30 min before and 15 min after oxazolone challenge, measured at 24 h): 25%; inhibition of ear swelling relative to vehicle control ([7]; 1 mg/ear x2 topical, 30 min before and 15 min after oxazolone challenge, measured at 24 h): 29%; inhibition of ear swelling relative to vehicle control ([7]; 3 mg/ear x2 topical, 30 min before and 15 min after oxazolone challenge, measured at 24 h): 40%; effect on inflammation in mouse allergic contact dermatitis model ([7]; listed as compound 2): not as potent as dexamethasone; effect on inflammation in mouse allergic contact dermatitis model ([7]; listed as compound (2)): dose dependently inhibited inflammation; effect on IL-1β stimulated MCP-1 [8]: little effect |
| NC(=O)c1c(Cl)c(-c2cccnc2)n2c1C=CCC2 [Compound 12, 2-Chloro-3-pyridin-3-yl-5,6-dihydro-indolizine-1-carboxylic acid amide] | 22.7 | 52.7 | 1600 | – |
| C[C@@H]1C[C@H]2[C@@H]3CCC4=CC(=O)C=C[C@]4(C)[C@@]3(F)[C@@H](O)C[C@]2(C)[C@@]1(O)C(=O)CO [dexamethasone, reference compound] | – | – | – | inhibition of ear swelling relative to vehicle control ([7]; 0.1 mg/ear topical, same regime, positive control): 72% |
| COC1CCCn2c(-c3cccnc3)c(Cl)c(C(N)=O)c21 (stereo not shown) [Compound 7, 2-Chloro-8-methoxy-3-pyridin-3-yl-5,6,7,8-tetrahydro-indolizine-1-carboxylic acid amide] | 1.4 | 32.1 | – | – |
| Cc1ccncc1-c1cc(C(N)=O)c2n1CCCC2 [Compound 4, 3-(4-Methyl-pyridin-3-yl)-5,6,7,8-tetrahydro-indolizine-1-carboxylic acid amide] | 15.9 | 30.8 | – | – |
| NC(=O)c1cc(-c2cccnc2)n2c1CCCC2 [Compound 1, 3-pyridin-3-yl-5,6,7,8-tetrahydro-indolizine-1-carboxamide] | 31.8 | 34.7 | – | – |
| N#Cc1c(Cl)c(-c2cccnc2)n2c1C(=O)C(Cl)(Cl)CC2 [Compound 10, 2,7,7-Trichloro-8-oxo-3-pyridin-3-yl-5,6,7,8-tetrahydro-indolizine-1-carbonitrile] | 18.8 | 35.7 | – | – |

Source: patent US20110184011A1, “Compounds” (SELCIA LIMITED, priority 2008, published 2011)
